Test results reported in ChEMBL document CHEMBL1157599, “Synthesis, in vitro and in vivo biological evaluation, docking studies, and structure--activity relationship (SAR) discussion of dipeptidyl boronic acid proteasome inhibitors composed of beta-amino acids” (J Med Chem, 2010).
One block for each compound: values may come before it.

What was measured:
[1] = test system: HL-60; assay: Cytotoxicity against human HL60 cells after 72 hrs by MTT assay; format: functional, cell-based; conditions: HL-60, 72 h
[2] = Terminal half life in Sprague-Dawley rat at 1 mg/kg, iv; format: ADME, organism-based; set-up: dose 1 mg/kg, route intravenous; conditions: in vivo, read-out: beta t1/2 (converted)
[3] = test system: PC-3; assay: Cytotoxicity against human PC3 cells after 72 hrs by MTT assay; format: functional, cell-based; conditions: PC-3, 72 h
[4] = test system: Rattus norvegicus; assay: Toxicity in Sprague-Dawley rat assessed as toxic reactions at 1 mg/kg, ig; format: organism-based; set-up: dose 1 mg/kg, route intragastric; conditions: in vivo, po
[5] = test system: NCI-H460; assay: Cytotoxicity against human H460 cells after 72 hrs by MTT assay; format: functional, cell-based; conditions: NCI-H460, 72 h
[6] = test system: BXPC-3; assay: Cytotoxicity against human BxPC3 cells after 72 hrs by MTT assay; format: functional, cell-based; conditions: BXPC-3, 72 h
[7] = Volume of distribution in Sprague-Dawley rat at 1 mg/kg, iv; format: ADME, organism-based; set-up: dose 1 mg/kg, route intravenous; conditions: in vivo, read-out: Vz
[8] = test system: U-266; assay: Cytotoxicity against human U266 cells after 72 hrs by MTT assay; format: functional, cell-based; conditions: U-266, 72 h
[9] = test system: HepG2; assay: cells; conditions: Homo sapiens, HepG2, 72 h
Description: Cytotoxicity against human HepG2 cells after 72 hrs by MTT assay

[10] = test system: Rattus norvegicus; assay: Toxicity in Sprague-Dawley rat assessed as toxic reactions at 1 mg/kg, iv; format: organism-based; set-up: dose 1 mg/kg, route intravenous; conditions: in vivo
[11] = test system: Rattus norvegicus; assay: Toxicity in Sprague-Dawley rat assessed as side effects at 2 mg/kg, iv; format: organism-based; set-up: dose 2 mg/kg, route intravenous; conditions: in vivo
[12] = Tmax in Sprague-Dawley rat at 1 mg/kg, iv; format: ADME, organism-based; set-up: dose 1 mg/kg, route intravenous; conditions: in vivo
[13] = Cmax in Sprague-Dawley rat at 1 mg/kg, iv; format: ADME, organism-based; set-up: dose 1 mg/kg, route intravenous; conditions: in vivo
[14] = Systemic clearance in Sprague-Dawley rat at 1 mg/kg, iv; format: ADME, organism-based; set-up: dose 1 mg/kg, route intravenous; conditions: in vivo
[15] = Cytotoxicity against human BCG823 cells after 72 hrs by MTT assay; format: functional, cell-based; conditions: BCG823, 72 h
[16] = Mean residence time in Sprague-Dawley rat at 1 mg/kg, iv; format: ADME, organism-based; set-up: dose 1 mg/kg, route intravenous; conditions: in vivo
[17] = test system: SK-OV-3; assay: Cytotoxicity against human SKOV3 cells after 72 hrs by MTT assay; format: functional, cell-based; conditions: SK-OV-3, 72 h
[18] = Inhibition of chymotrypsin-like activity of human 20S proteosome assessed as hydrolysis of fluorogenic Suc-Leu-Leu-Val-Tyr-AMC substrate
[19] = test system: SW480; assay: Cytotoxicity against human SW480 cells after 72 hrs by MTT assay; format: functional, cell-based; conditions: SW480, 72 h
[20] = AUC (0 to t) in Sprague-Dawley rat at 1 mg/kg, iv; format: ADME, organism-based; set-up: dose 1 mg/kg, route intravenous; conditions: plasma
[21] = test system: A549; assay: Cytotoxicity against human A549 cells after 72 hrs by MTT assay; format: functional, cell-based; conditions: A549, 72 h
[22] = Mean residence time in Sprague-Dawley rat at 1 mg/kg, ig; format: ADME, organism-based; set-up: dose 1 mg/kg, route intragastric; conditions: in vivo, po
[23] = Oral bioavailability in Sprague-Dawley rat; format: ADME, organism-based; conditions: in vivo
[24] = Toxicity against zebrafish embryo assessed as cell death in tail at 1 umol after 24 hrs; set-up: species or system Danio rerio
[25] = Terminal half life in Sprague-Dawley rat at 1 mg/kg, ig; format: ADME, organism-based; set-up: dose 1 mg/kg, route intragastric; conditions: in vivo, po, read-out: beta t1/2 (converted)
[26] = AUC (0 to t) in Sprague-Dawley rat at 1 mg/kg, ig; format: ADME, organism-based; set-up: dose 1 mg/kg, route intragastric; conditions: plasma, po
[27] = test system: Rattus norvegicus; assay: Toxicity in Sprague-Dawley rat assessed as mortality at 1 mg/kg, ig after 10 hrs; format: organism-based; set-up: dose 1 mg/kg, route intragastric; conditions: in vivo, po
[28] = Tmax in Sprague-Dawley rat at 1 mg/kg, ig; format: ADME, organism-based; set-up: dose 1 mg/kg, route intragastric; conditions: in vivo, po
[29] = Toxicity against zebrafish embryo assessed as embryo death at 10 umol after 24 hrs; set-up: species or system Danio rerio; conditions: in vivo
[30] = Toxicity against zebrafish embryo assessed as cell death in embryo at 1 umol after 24 hrs; set-up: species or system Danio rerio
[31] = test system: Rattus norvegicus; assay: Toxicity in Sprague-Dawley rat assessed as mortality at 1 mg/kg, iv after 10 hrs; format: organism-based; set-up: dose 1 mg/kg, route intravenous; conditions: in vivo
[32] = test system: Rattus norvegicus; assay: Volume of distribution in Sprague-Dawley rat at 1 mg/kg, ig; format: ADME, organism-based; set-up: dose 1 mg/kg, route intragastric; conditions: in vivo, po
[33] = Cmax in Sprague-Dawley rat at 1 mg/kg, ig; format: ADME, organism-based; set-up: dose 1 mg/kg, route intragastric; conditions: in vivo, po
[34] = Systemic clearance in Sprague-Dawley rat at 1 mg/kg, ig; format: ADME, organism-based; set-up: dose 1 mg/kg, route intragastric; conditions: in vivo, po
[35] = Toxicity against zebrafish embryo assessed as morphological changes at 10 umol after 24 hrs; set-up: species or system Danio rerio; conditions: in vivo
[36] = Toxicity against zebrafish embryo assessed as morphological changes at 1 umol after 24 hrs; set-up: species or system Danio rerio; conditions: in vivo

half-life [2]: 5.3 h
Vd [7]: 8.45 L/kg
IC50 [9]: 1880 nM
Tmax [12]: 1.8 min
Cmax [13]: 2930 ng/mL
clearance [14]: 18.8 mL/min/kg
MRT [16]: 2.8 h
IC50 [18]: 9.6 nM
AUC(0-t) [20]: 933 ng·h/mL
SMILES: COc1ccc([C@@H](CC(=O)N[C@@H](CC(C)C)B(O)O)NC(=O)c2ccccc2)cc1
IC50 [1]: 140 nM
IC50 [3]: 230 nM
Activity [4]: Non-toxic
IC50 [5]: 14600 nM
IC50 [6]: 380 nM
IC50 [8]: 350 nM
Activity [10]: Non-toxic
Activity [11]: Non-toxic
IC50 [15]: 74400 nM
IC50 [17]: 3490 nM
IC50 [19]: 410 nM
IC50 [21]: 830 nM

IC50 [18]: 382 nM
SMILES: CC(C)C[C@H](NC(=O)CC(NC(=O)c1cccnc1)c1ccccc1)B(O)O (stereo not given in full)

IC50 [18]: 30 nM
SMILES: CC(C)C[C@H](NC(=O)CC(NC(=O)c1ccccc1)c1ccc(Cl)cc1)B(O)O (stereo not given in full)

IC50 [18]: 35 nM
SMILES: COc1ccc(C(CC(=O)N[C@@H](CC(C)C)B(O)O)NC(=O)c2cccnc2)cc1 (stereo not given in full)

IC50 [18]: 40 nM
SMILES: CC(C)C[C@H](NC(=O)CC(NC(=O)c1ccccc1)c1ccccc1)B(O)O (stereo not given in full)

IC50 [9]: 5590 nM
IC50 [18]: 12.5 nM
SMILES: COc1ccc(C(CC(=O)N[C@@H](CC(C)C)B(O)O)NC(=O)c2ccccc2)cc1 (stereo not given in full)
IC50 [1]: 1020 nM
IC50 [3]: 830 nM
IC50 [5]: 36000 nM
IC50 [6]: 1500 nM
IC50 [8]: 2650 nM
IC50 [15]: 30900 nM
IC50 [17]: 8430 nM
IC50 [19]: 1080 nM
IC50 [21]: 3450 nM

IC50 [18]: 165 nM
SMILES: Cc1ccc(C(CC(=O)N[C@@H](CC(C)C)B(O)O)NC(=O)c2cccnc2)cc1 (stereo not given in full)

IC50 [18]: 134 nM
SMILES: COc1ccc(C(CC(=O)N[C@@H](CC(C)C)B(O)O)NC(=O)c2cnccn2)cc1 (stereo not given in full)

IC50 [18]: 14 nM
SMILES: Cc1ccc(C(CC(=O)N[C@@H](CC(C)C)B(O)O)NC(=O)c2ccccc2)cc1 (stereo not given in full)

IC50 [9]: 5130 nM
IC50 [18]: 350 nM
SMILES: COc1ccc([C@H](CC(=O)N[C@@H](CC(C)C)B(O)O)NC(=O)c2ccccc2)cc1
IC50 [1]: 700 nM
IC50 [3]: 1110 nM
IC50 [5]: 25200 nM
IC50 [6]: 2820 nM
Activity [35]: Non-toxic
Activity [36]: Non-toxic
IC50 [8]: 1280 nM
IC50 [15]: 76900 nM
IC50 [17]: 14500 nM
IC50 [19]: 1720 nM
IC50 [21]: 3680 nM

More lines, now with the values behind:

SMILES: Cc1ccc(C[C@H](NC(=O)CC(NC(=O)c2cnccn2)c2ccccc2)B(O)O)cc1 (stereo not given in full)
IC50 [18]: 497 nM

SMILES: CC(C)C[C@H](NC(=O)[C@H](Cc1ccccc1)NC(=O)c1cnccn1)B(O)O [BORTEZOMIB]
MRT [22]: 7.69 h
bioavailability [23]: 46%
Activity [24]: 28.5%
IC50 [1]: 7.1 nM
half-life [2]: 2 h
half-life [25]: 7.47 h
IC50 [3]: 7 nM
IC50 [5]: 780 nM
IC50 [6]: 16.2 nM
Vd [7]: 3.74 L/kg
AUC(0-t) [26]: 303 ng·h/mL
Activity [27]: Toxic
IC50 [8]: 8.8 nM
IC50 [9]: 7.5 nM
Tmax [28]: 0.23 h
Activity [29]: Toxic
Tmax [12]: 1.8 min
Cmax [13]: 1080 ng/mL
clearance [14]: 23.9 mL/min/kg
Activity [30]: 52.4%
Activity [31]: Toxic
IC50 [15]: 3290 nM
MRT [16]: 1.4 h
IC50 [17]: 151 nM
Vz [32]: 29.791 L/kg
IC50 [18]: 2.48 nM
IC50 [19]: 6.1 nM
Cmax [33]: 161 ng/mL
AUC(0-t) [20]: 654 ng·h/mL
CL/F [34]: 44.7 mL/min/kg
IC50 [21]: 6.7 nM

SMILES: O=C(CC(NC(=O)c1cnccn1)c1ccccc1)N[C@@H](Cc1ccccc1)B(O)O (stereo not given in full)
IC50 [18]: 664 nM

SMILES: Cc1ccc(C(CC(=O)N[C@@H](CC(C)C)B(O)O)NC(=O)c2cnccn2)cc1 (stereo not given in full)
IC50 [18]: 69.8 nM

SMILES: CC(C)C[C@H](NC(=O)CC(NC(=O)c1cccnc1)c1ccc(Cl)cc1)B(O)O (stereo not given in full)
IC50 [18]: 180 nM

SMILES: CC(C)C[C@H](NC(=O)CC(NC(=O)c1cnccn1)c1ccccc1)B(O)O (stereo not given in full)
IC50 [18]: 136 nM

SMILES: CC(C)C[C@H](NC(=O)CC(NC(=O)c1cnccn1)c1ccc(Cl)cc1)B(O)O (stereo not given in full)
IC50 [18]: 121 nM

SMILES: COc1ccc(C(CC(=O)N[C@@H](CC(C)C)B(O)O)NC(=O)c2cccc3c2CCCC3)cc1 (stereo not given in full)
IC50 [18]: 161 nM
